The numbers were not newly measured in US20070231385A1, “Controlled Release Pharmaceutical Composition and a Process for Preparing the Same” (Lupin Limited, priority 2003, published 2007), which cites them from elsewhere.

The conditions of this data set: background statement.

For `Cc1ccnc2c1NC(=O)c1cccnc1N2C1CC1` [Nevaripine], the serum half-life result is given as “more than 25 hours”.
